Source: publication PMC9928118, “Funneling modulatory peptide design with generative models: Discovery and characterization of disruptors of calcineurin protein-protein interactions” (PLOS Computational Biology, 2023)

Test system: GST-tagged Cn
Assay: PEPperPRINT peptide microarray binding assay with GST-tagged Cn
Description: We then estimated in-silico the binding strength of the various peptides to Cn by template-based docking followed by flexible backbone refinement using Modeller and PepCrawler (Figs 4 and S4). In parallel, we performed a medium-throughput qualitative binding assay using a PEPperPRINT peptide microarray to evaluate the direct binding of Cn to selected peptides (Figs 4 and S5, S3 Data).
Fig 4 Medium-throughput filtering by structural modeling and microarray screening. (a) Depiction of the structural modeling protocol: after alignment to the known PxIxIT binding site, an efficient flexible backbone structure refinement algorithm is applied to estimate the docking energy. […] (c) Coefficients of the equivalent single-site model fitted by sparse linear regression, shown in weight logo representation. […] Colors indicate physical property (black = hydrophobic, red = negatively charged, etc.). (d) Per-gene distribution of docking scores across natural fragments (lower is better). […] (e) Overview of the microarray screening. Peptides are printed on the chip (two circles per peptide). After pouring of Cn and subsequent washing, fluorescent-tagged, a Cn-targeting antibody is overlaid and an image is taken. Fluorescent spots indicate strong Cn binders. (f) Scatter plot of the sequence likelihood (normalized by length, higher is better) against fluorescence level (higher is better, see Methods for details of the data analysis).
In parallel, selected peptides were tested for Cn binding on a chip microarray (PEPperPRINT). 786 peptides were printed on the chip and were incubated with GST-tagged Cn overnight at 4°C. Following extensive washing, binding was detected by applying a fluorescently labeled (Alexa-Fluor 647) GST antibody. […] The experiment was repeated five times, and Z-normalized fluorescence levels were determined following post-processing of the raw data (Methods, S5A, S5B and S5C Fig).
The peptide array was prepared as a custom array pepper chip (PEPperPRINT). For binding detection, 1mg/ml GST-tagged Cn was incubated overnight on the microarray at 4°C. Following extensive washing, fluorescently labeled (Alexa-Fluor 647) GST-antibody. […] The experiment was repeated five times. Each scan was analyzed as follows: a grid was overlaid using the border HA markers to determine regions of interest (ROI) for each peptide (two ROIs per peptide) and the logarithm of the average fluorescence intensity was computed for each ROI. […] To remove spatial artifacts, a position-dependent baseline fluorescence was fitted using a second-order polynomial, and subtracted to the fluorescence. Fluorescence levels were next averaged over the two ROI for each peptide and Z-normalized. […] The Z-scores were averaged over the five repetitions to yield one fluorescence score per peptide.

[1] = max over the spots listed under Location on chip
[2] = mean over the spots listed under Location on chip
[3] = GST-tagged Cn, max over the chip spots listed under Location on chip
[4] = GST-tagged Cn, mean over the chip spots listed under Location on chip
[5] = max over the chip locations listed for the peptide (two spots)
[6] = mean over the chip locations listed for the peptide (two spots)
[7] = GST-tagged Cn, max over the spots named in Location on chip
[8] = GST-tagged Cn, mean over the spots named in Location on chip
[9] = GST-tagged Cn, max over the chip locations
[10] = GST-tagged Cn, mean over the chip locations
[11] = GST-tagged Cn, max over the spots on the chip (two locations)
[12] = GST-tagged Cn, mean over the spots on the chip (two locations)

TYWTNPQFRVTLEDPD [SeqRBMlowT_4395]
Chip Fluorescence (max) [1]: 3.405
Chip Fluorescence (mean) [2]: 0.7303

GLLNVYKKTRITYDNL [Seqrandom_1974]
Chip Fluorescence (max) [3]: 0.9025
Chip Fluorescence (mean) [4]: -0.2688

TFWTNPQYRITLEDED [SeqRBMlowT_1185]
Chip Fluorescence (max) [5]: 4.604
Chip Fluorescence (mean) [6]: 0.2377

GGESQPGIVVHVCEED [SeqRBMlowT_2505]
Chip Fluorescence (max) [7]: 1.711
Chip Fluorescence (mean) [8]: 0.4381

TFWDNPQYQIKLNDPD [SeqRBM_8698]
Chip Fluorescence (max) [7]: 1.7877
Chip Fluorescence (mean) [8]: -0.1207

TFWSNPQFKITLEDPD [SeqRBMlowT_3183]
Chip Fluorescence (max) [9]: 0.1109
Chip Fluorescence (mean) [10]: -0.8373

ESLWIPNATPTNFGVY [SeqRBM_4910]
Chip Fluorescence (max) [7]: 1.643
Chip Fluorescence (mean) [8]: 0.8461

GLCDSSKVNLVDAGPV [Seqshuffled_9731]
Chip Fluorescence (max) [11]: 1.002
Chip Fluorescence (mean) [12]: 0.1299

RNPGTALLELRGHKAS [SeqRBMlowT_6384]
Chip Fluorescence (max) [11]: 1.174
Chip Fluorescence (mean) [12]: 0.5723

KGCAAPAISIDFAPIN [SeqRBM_541]
Chip Fluorescence (max) [5]: 6.269
Chip Fluorescence (mean) [6]: 0.8691

RTYMNPFASFLDHSHR [SeqSFB3_Pseudocercospora_musae]
Chip Fluorescence (max) [11]: 1.14
Chip Fluorescence (mean) [12]: -0.1201

ASMSPPCINIDYAPIS [SeqRBM_1607]
Chip Fluorescence (max) [9]: -0.1231
Chip Fluorescence (mean) [10]: -1.5167

TFWTNPQYRITLEEVD [SeqRBMlowT_98]
Chip Fluorescence (max) [3]: 0.8765
Chip Fluorescence (mean) [4]: 0.0532

AAGAGVGIVITVTEAE [SeqRBMlowT_180]
Chip Fluorescence (max) [1]: 3.317
Chip Fluorescence (mean) [2]: 1.923

EPEMSPSIFILKAHTT [SeqRBM_1051]
Chip Fluorescence (max) [9]: -0.7132
Chip Fluorescence (mean) [10]: -1.058

STASLPTFSFSPLAPS [SeqRBMlowT_9999]
Chip Fluorescence (max) [1]: 2.669
Chip Fluorescence (mean) [2]: -0.6649

MAGPHPKIVITGPHEE [PKIVIT-containing synthetic peptide]
Chip Fluorescence (max) [1]: 2.82
Chip Fluorescence (mean) [2]: 1.158

ATPGTFPRGDGAHKKQ [SeqRBMlowT_5886]
Chip Fluorescence (max) [5]: 4.111
Chip Fluorescence (mean) [6]: 0.8256

QYAYNSQMMGITTQLQ [Seqshuffled_9335]
Chip Fluorescence (max) [3]: 0.8878
Chip Fluorescence (mean) [4]: -0.5817

GAWGLNKSGLFLINEV [Seqshuffled_9399]
Chip Fluorescence (max) [5]: 7.244
Chip Fluorescence (mean) [6]: 0.4206

NDHALPEITVTPAELP [SeqRBM_7856]
Chip Fluorescence (max) [5]: 4.823
Chip Fluorescence (mean) [6]: 1.654

NGPGTPSRQGQPAAPS [SeqRTS1_Penicillium_nalgiovense]
Chip Fluorescence (max) [3]: 0.9409
Chip Fluorescence (mean) [4]: -0.6593

GGPGTPTRQGQPLAPS [SeqRBMlowT_7789]
Chip Fluorescence (max) [5]: 4.384
Chip Fluorescence (mean) [6]: 0.9288

LCVTGRERIAEDWLRP [Seqrandom_9974]
Chip Fluorescence (max) [11]: 1.2052
Chip Fluorescence (mean) [12]: 0.7765

DAHACAVLGIGSFSLL [SeqRBM_9753]
Chip Fluorescence (max) [11]: 1.031
Chip Fluorescence (mean) [12]: -0.08931

QSRSCSHPNRSPERVT [SeqRBM_5791]
Chip Fluorescence (max) [9]: -0.7515
Chip Fluorescence (mean) [10]: -1.165

TFWTNPQFRLTLLSPD [SeqRBMlowT_9173]
Chip Fluorescence (max) [11]: 1.238
Chip Fluorescence (mean) [12]: 0.4236

VAQAFNVDGNCTQYWN [Seqrandom_9942]
Chip Fluorescence (max) [5]: 6.979
Chip Fluorescence (mean) [6]: 1.446

ADEANPEITITPAELP [SeqRBMlowT_369]
Chip Fluorescence (max) [7]: 1.463
Chip Fluorescence (mean) [8]: 0.5736

TFWTNPQYVITLEDPD [SeqRBMlowT_239]
Chip Fluorescence (max) [1]: 3.22
Chip Fluorescence (mean) [2]: 0.7373

TLWTNPQYHITLPEED [SeqRBM_3002]
Chip Fluorescence (max) [1]: 3.2575
Chip Fluorescence (mean) [2]: 0.9321

TSSSLPTFNFSSSVIT [SeqNUP153_Canis_lupus]
Chip Fluorescence (max) [11]: 0.9878
Chip Fluorescence (mean) [12]: -0.982

QAIYQDILGIGAFSGS [SeqRBM_285]
Chip Fluorescence (max) [11]: 1.266
Chip Fluorescence (mean) [12]: -0.8575

TFWTNPQYRLKLLEED [SeqCAPN11_Tupaia_chinensis]
Chip Fluorescence (max) [5]: 4.428
Chip Fluorescence (mean) [6]: 0.5574

PAGAGVGIVITVTEAE [SeqRBMlowT_166]
Chip Fluorescence (max) [1]: 3.117
Chip Fluorescence (mean) [2]: 1.082

RKDSAVTQWGFSNLWA [Seqrandom_9950]
Chip Fluorescence (max) [5]: 4.744
Chip Fluorescence (mean) [6]: 1.033

HISSSPDITATPTQHR [SeqRIPOR2_Calypte_anna]
Chip Fluorescence (max) [9]: -0.228
Chip Fluorescence (mean) [10]: -0.7974

TFWMNPQFKISLEDPD [SeqRBMlowT_4243]
Chip Fluorescence (max) [5]: 3.47
Chip Fluorescence (mean) [6]: 1.839

PGDDQPGIIVHPCEEP [SeqRBMlowT_1949]
Chip Fluorescence (max) [1]: 2.883
Chip Fluorescence (mean) [2]: 1.506

ASGLSPRIEITPSHEL [SeqNFATC2_Homo_sapiens]
Chip Fluorescence (max) [11]: 0.9983
Chip Fluorescence (mean) [12]: 0.1363

RNPGQALLELRGHSAS [SeqRBMlowT_6125]
Chip Fluorescence (max) [3]: 0.4069
Chip Fluorescence (mean) [4]: -0.3301

HVSSSPRIAITPTQHR [SeqRBMlowT_8885]
Chip Fluorescence (max) [7]: 1.646
Chip Fluorescence (mean) [8]: -0.634

PMLVFRALRIHESPLP [Seqshuffled_9670]
Chip Fluorescence (max) [3]: 0.8908
Chip Fluorescence (mean) [4]: 0.2837

RSYVNPAYSFTFDSKA [SeqSFB3_Lachancea_meyersii]
Chip Fluorescence (max) [7]: 1.532
Chip Fluorescence (mean) [8]: -0.902

KAYMCPYMDFQDGGRR [SeqRBM_4270]
Chip Fluorescence (max) [1]: 3.135
Chip Fluorescence (mean) [2]: 0.405

STSSLPTFSFSSPVPT [SeqRBMlowT_3904]
Chip Fluorescence (max) [3]: 0.9816
Chip Fluorescence (mean) [4]: -1.275

VKLVIIQVRSASVDAN [SeqRBM_6437]
Chip Fluorescence (max) [9]: -0.5934
Chip Fluorescence (mean) [10]: -1.618

LNAIQEAQDKTDIRNK [Seqshuffled_9749]
Chip Fluorescence (max) [3]: 0.5862
Chip Fluorescence (mean) [4]: -1.046

RQPGTAPANLVGHKKQ [SeqRBM_2906]
Chip Fluorescence (max) [3]: 0.7504
Chip Fluorescence (mean) [4]: -0.5221

AKMAPPAINIDFAPPN [SeqRBMlowT_7690]
Chip Fluorescence (max) [7]: 1.862
Chip Fluorescence (mean) [8]: -0.1462

RNPGQALLELKGHSAQ [SeqRBMlowT_7734]
Chip Fluorescence (max) [11]: 1.17
Chip Fluorescence (mean) [12]: -0.1022

TFWTNPQYRITVTDAD [SeqRBMlowT_620]
Chip Fluorescence (max) [1]: 2.815
Chip Fluorescence (mean) [2]: 0.3496

HSKFIPKLSIQSPVLH [SeqRBMlowT_6746]
Chip Fluorescence (max) [7]: 1.7974
Chip Fluorescence (mean) [8]: -0.2423

SSMAPPAINIDFAPTN [SeqRBMlowT_1806]
Chip Fluorescence (max) [7]: 1.404
Chip Fluorescence (mean) [8]: 0.3806
